Reference: ChEMBL document CHEMBL1201862, “PubChem BioAssay data set” (2004)
Counter-ions that a name gives are not always drawn. The source made the active and inactive calls.

Legend:
[1] = IC50 of insulin release inhibition, rat insulinoma INS-1E line, 5 mM glucose, cell-based (AID 1117331); assay type: functional
cells = assay type: functional, cell-based; settings: INS-1E
[2] = rise of 2N DNA cells, HeLa – IC50, dose response (AID 1117349); assay type: functional, cell-based
[3] = rise of 4N DNA cells, HeLa – IC50, dose response (AID 1117351); assay type: functional, cell-based
[4] = biological target: Aryl hydrocarbon receptor (Homo sapiens, UniProt P35869); assay: Luminescence-based cell-based high throughput dose response assay for activators of the Aryl Hydrocarbon Receptor (AHR). [Related pubchem assays: 2796 (Primary screen (AHR activators in singlicate)), 2845 (Confirmation screen (AHR activators in triplicate)), 434939 (Counterscreen (PXR activators in triplicate)), 2804 (Summary (AHR activators))]; assay type: ADME
Sequence of Aryl hydrocarbon receptor (P35869 whole entry): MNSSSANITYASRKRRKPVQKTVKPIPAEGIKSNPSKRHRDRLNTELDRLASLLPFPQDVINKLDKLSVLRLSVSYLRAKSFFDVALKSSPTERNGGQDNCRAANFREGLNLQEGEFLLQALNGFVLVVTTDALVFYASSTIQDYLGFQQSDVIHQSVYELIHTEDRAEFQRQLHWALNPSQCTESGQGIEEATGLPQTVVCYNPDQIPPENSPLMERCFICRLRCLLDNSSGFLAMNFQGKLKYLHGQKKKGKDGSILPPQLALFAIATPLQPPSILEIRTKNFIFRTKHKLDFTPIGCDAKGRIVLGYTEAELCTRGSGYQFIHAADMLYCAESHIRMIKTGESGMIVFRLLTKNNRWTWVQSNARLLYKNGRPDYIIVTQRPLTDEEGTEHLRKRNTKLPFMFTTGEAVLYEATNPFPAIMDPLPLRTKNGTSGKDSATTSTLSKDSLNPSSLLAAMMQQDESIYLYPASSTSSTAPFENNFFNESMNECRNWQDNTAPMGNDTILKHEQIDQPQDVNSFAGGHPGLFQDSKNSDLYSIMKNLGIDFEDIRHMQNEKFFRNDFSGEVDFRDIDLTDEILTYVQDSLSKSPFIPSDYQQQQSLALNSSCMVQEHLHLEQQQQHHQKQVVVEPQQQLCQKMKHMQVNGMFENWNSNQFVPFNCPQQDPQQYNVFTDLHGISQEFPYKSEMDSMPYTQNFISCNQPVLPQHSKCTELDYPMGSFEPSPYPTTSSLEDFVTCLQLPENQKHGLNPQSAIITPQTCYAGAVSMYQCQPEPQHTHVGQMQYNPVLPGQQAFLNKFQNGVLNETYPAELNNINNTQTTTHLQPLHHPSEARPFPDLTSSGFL

[5] = Trypanosoma cruzi growth suppression in host cells – NIH3T3 host cells, beta-gal luminescence, confirmation (AID 2044); assay type: functional, cell-based;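 note: intracellular parasites grown in NIH/3T3 mouse fibroblasts as host cells; luminescent beta-galactosidase reporter signal from transgenic T. cruzi replicating inside host cells; inhibitors lower the luminescence signal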
Paired box protein Pax-8 = Paired box protein Pax-8 (Homo sapiens, UniProt Q06710); assay: PAX8 transcriptional activity inhibition in RMG-I – RMG-I cells, luciferase, cherry-pick, dose response (AID 687027); assay type: functional, cell-based;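 note: luciferase reporter driven by Pax8 target thyroperoxidase promoter measured by SteadyGlo luminescence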
Sequence of Paired box protein Pax-8 (Q06710 whole entry): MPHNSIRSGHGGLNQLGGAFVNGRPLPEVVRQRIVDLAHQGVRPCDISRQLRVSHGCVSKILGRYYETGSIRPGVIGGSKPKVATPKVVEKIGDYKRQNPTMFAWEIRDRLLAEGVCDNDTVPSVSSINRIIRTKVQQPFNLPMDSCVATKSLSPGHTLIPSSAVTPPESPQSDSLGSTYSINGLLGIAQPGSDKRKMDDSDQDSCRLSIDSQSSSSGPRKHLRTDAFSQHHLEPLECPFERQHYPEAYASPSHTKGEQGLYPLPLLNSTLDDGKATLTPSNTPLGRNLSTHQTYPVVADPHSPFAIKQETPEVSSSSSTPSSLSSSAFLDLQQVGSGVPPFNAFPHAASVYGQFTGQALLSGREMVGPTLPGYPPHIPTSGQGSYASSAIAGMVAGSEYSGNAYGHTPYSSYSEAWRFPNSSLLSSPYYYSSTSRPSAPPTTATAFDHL

INS1 = assay: INS-1E survival protection against cytokine death – cell-based, luminescence, retest, dose response (AID 449756); assay type: functional; settings: Rattus norvegicus;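 note: cell death triggered by IL-1 beta plus TNF-alpha plus IFN-gamma mixture; protective hits raise ATP signal compared with cytokine alone wells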
[6] = NIH3T3 cell viability loss – ATP luminescence, mouse fibroblasts, counter-screen, dose response (AID 2010); assay type: functional, cell-based;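 note: cells exposed to compound for about 90 hours before reading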
[7] = luciferase reporter signal suppression in cells – H4 neuroglioma cells, luminescence, dose response (AID 1990); assay type: functional, cell-based
[8] = biological target: T1, Ubiquitin-conjugating enzyme E2 N (Homo sapiens, UniProt P61088); assay type: functional;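 note: Dose-response confirmation in a TR-FRET assay detecting UBC13-driven polyubiquitin chain formation, inhibition measured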
T1 sequence (P61088 whole entry): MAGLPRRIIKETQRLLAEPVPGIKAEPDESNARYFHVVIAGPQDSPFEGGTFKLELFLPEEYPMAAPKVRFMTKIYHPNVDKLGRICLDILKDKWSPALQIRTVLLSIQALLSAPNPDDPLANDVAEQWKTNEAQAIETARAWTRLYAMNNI

[9] = DRD fibroblast viability loss – cell-based, non-viral oncogenic, luminescence, dose response (AID 1934); assay type: functional; settings: Homo sapiens
BJ [10] = assay: cells; assay type: functional, cell-based; settings: Homo sapiens
[11] = microbe, parasite or virus in culture; assay type: functional; settings: Mycobacterium tuberculosis
[12] = Luminescence Cell-Based Dose Response HTS to Identify Inhibitors of 5'UTR Stem-Loop Driven Prion Protein mRNA Translation in H4 Neuroglioblastoma Cells. [Related pubchem assays: 1827 (Project Summary), 1813 (Primary HTS)]; assay type: functional
[13] = alpha-synuclein stem-loop luciferase translation blockers – H4 neuroglioma cells, luminescence, confirmation (AID 1988); assay type: functional, cell-based
BJ [14] = assay: BJ-TERT fibroblast viability loss – cell-based, RAS-independent, luminescence, dose response (AID 1933); assay type: functional; settings: Homo sapiens
[15] = biological target: Heat shock protein HSP 90-alpha (Homo sapiens, UniProt P07900); assay: Luminescence-based dose response biochemical high throughput screening assay for inhibitors of the Heat Shock Protein 90 (HSP90). [Related pubchem assays: 1831 (Summary AID.), 1846 (Confirmation screen.), 1789 (Primary screen.)]
BJ [16] = assay: BJ-TERT-LT-ST fibroblast viability loss – cell-based, RAS-independent, luminescence, dose response (AID 1935); assay type: functional; settings: Homo sapiens;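 note: BJ fibroblasts immortalized with TERT plus LT and ST oncogenes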
[17] = biological target: Eukaryotic translation initiation factor 4E (Mus musculus, UniProt P63073); assay: blockers of eIF4G binding by eIF4E – biochemical, TR-FRET, dose response (AID 855); assay type: functional;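 note: potency for disrupting eIF4E binding to eIF4GI seen as loss of FRET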
Sequence of Eukaryotic translation initiation factor 4E (P63073 whole entry): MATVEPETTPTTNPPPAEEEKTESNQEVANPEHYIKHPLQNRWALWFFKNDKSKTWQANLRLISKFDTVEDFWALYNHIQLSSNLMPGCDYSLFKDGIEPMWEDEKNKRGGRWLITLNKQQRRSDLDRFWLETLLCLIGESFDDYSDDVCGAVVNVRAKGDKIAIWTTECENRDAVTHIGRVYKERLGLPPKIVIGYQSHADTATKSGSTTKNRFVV

[18] = biological target: Glucose-6-phosphate 1-dehydrogenase (Homo sapiens, UniProt P11413); assay: inhibition of Homo sapiens G6PD, dose series – biochemical, fluorescence, selectivity assay for P. falciparum G6PD inhibitor project, dose response (AID 504792); assay type: functional
H9c2 = assay: cells; assay type: functional, cell-based; settings: Rattus norvegicus, H9c2, Myocardium;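 note: confirmatory concentration-response retest of ultra-high-throughput screening hits for modulation of myocardial damage; cell death induced by hydrogen peroxide oxidative stress; compound pretreatment for 60 min then peroxide exposure for 2 h; potency is for protecting the cells against peroxide damage rather than for killing them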
[19] = biological target: T2, Voltage-gated N-type calcium channel alpha-1B subunit/Amyloid beta A4 precursor protein-binding family A member 1 (Homo sapiens, UniProt Q00975+Q02410); assay type: protein assay
T2 sequence (Q00975 whole entry): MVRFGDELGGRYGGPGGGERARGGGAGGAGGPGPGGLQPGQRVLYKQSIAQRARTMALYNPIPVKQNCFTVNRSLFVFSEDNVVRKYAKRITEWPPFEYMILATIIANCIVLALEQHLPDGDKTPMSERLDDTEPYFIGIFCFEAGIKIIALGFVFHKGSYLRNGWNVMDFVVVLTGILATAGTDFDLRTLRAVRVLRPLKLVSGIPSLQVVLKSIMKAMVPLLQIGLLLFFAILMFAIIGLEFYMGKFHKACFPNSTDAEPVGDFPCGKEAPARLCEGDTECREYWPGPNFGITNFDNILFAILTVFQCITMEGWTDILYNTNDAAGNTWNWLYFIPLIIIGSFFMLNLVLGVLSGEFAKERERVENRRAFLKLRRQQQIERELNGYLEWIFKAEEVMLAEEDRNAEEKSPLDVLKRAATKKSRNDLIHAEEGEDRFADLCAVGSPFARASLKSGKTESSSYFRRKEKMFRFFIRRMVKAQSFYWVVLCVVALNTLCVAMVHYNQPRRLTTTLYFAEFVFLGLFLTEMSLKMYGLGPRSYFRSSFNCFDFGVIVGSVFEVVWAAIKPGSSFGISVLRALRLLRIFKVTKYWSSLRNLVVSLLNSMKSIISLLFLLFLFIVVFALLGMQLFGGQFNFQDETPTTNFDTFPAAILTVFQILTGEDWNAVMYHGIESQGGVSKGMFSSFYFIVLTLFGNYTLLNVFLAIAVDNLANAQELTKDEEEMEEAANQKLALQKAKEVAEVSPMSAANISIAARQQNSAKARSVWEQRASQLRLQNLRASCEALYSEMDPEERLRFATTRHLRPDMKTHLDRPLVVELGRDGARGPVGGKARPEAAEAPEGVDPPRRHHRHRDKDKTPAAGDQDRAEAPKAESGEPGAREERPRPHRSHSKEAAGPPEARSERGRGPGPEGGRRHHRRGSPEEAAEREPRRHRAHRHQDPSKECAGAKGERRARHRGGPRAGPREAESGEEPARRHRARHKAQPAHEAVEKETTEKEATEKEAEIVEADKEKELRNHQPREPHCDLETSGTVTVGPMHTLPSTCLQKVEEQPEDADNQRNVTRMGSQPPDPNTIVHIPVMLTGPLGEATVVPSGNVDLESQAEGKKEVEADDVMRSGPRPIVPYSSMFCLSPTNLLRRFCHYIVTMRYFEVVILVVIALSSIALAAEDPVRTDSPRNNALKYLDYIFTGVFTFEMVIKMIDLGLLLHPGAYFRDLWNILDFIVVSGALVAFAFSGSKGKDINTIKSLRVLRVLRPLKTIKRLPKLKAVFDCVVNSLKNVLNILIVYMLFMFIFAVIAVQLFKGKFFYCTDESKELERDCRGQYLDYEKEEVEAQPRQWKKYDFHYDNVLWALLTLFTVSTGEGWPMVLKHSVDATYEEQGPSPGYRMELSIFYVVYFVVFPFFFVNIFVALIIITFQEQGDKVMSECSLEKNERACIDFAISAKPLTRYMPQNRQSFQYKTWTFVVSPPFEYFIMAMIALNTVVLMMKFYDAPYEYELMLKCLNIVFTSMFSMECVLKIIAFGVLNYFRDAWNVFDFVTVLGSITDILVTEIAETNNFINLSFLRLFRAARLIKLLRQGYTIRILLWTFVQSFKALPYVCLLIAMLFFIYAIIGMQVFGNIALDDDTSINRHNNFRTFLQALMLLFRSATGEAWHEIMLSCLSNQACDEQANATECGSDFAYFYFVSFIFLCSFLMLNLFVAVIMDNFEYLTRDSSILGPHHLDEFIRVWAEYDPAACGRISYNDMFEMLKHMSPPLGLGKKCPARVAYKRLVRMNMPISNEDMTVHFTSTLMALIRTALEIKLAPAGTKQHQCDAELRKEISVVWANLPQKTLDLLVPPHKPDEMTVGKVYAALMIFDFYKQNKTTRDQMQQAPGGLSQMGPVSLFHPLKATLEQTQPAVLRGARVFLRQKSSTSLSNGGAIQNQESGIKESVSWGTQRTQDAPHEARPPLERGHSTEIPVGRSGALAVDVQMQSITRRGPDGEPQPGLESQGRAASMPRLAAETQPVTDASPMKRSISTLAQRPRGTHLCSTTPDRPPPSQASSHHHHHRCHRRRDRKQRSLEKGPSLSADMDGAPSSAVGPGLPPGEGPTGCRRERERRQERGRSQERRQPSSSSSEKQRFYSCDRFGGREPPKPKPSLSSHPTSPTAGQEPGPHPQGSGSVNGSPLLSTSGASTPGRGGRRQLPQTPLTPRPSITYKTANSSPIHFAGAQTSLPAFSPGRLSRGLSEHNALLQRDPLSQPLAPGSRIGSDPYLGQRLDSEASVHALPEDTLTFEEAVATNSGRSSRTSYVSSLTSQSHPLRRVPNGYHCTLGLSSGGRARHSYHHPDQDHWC
T2 sequence (Q02410 whole entry): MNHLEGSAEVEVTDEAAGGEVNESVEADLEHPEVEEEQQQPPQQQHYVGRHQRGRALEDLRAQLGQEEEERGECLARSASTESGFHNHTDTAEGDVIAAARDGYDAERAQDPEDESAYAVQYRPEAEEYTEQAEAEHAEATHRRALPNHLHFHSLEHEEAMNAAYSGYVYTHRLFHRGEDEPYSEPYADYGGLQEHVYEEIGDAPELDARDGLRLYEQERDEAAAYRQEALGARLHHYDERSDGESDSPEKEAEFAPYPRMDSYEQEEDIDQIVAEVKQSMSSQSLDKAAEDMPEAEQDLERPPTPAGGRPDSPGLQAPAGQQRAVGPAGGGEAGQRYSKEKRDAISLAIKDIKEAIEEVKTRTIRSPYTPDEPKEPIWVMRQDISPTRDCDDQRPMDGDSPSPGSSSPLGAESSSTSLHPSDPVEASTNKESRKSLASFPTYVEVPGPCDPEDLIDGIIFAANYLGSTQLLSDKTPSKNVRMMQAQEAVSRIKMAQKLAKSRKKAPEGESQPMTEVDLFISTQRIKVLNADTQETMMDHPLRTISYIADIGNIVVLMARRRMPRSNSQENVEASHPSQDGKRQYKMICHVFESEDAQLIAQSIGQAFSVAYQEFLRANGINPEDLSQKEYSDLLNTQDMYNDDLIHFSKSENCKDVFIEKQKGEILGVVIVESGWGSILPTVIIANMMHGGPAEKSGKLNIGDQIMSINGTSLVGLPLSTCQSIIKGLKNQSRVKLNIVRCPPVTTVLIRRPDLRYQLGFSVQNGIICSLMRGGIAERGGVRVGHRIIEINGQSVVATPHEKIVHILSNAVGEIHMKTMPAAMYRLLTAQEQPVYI

[20] = biological target: T2, Voltage-gated N-type calcium channel alpha-1B subunit/Amyloid beta A4 precursor protein-binding family A member 1; assay type: protein assay; remark: listed apart in the source
[21] = biological target: Bifunctional protein GlmU (Mycobacterium tuberculosis, UniProt P9WMN3); assay: Inhibitors of Mycobacterial Glucosamine-1-phosphate acetyl transferase (GlmU). Secondary screen.; parameters: species or system Mycobacterium tuberculosis H37Rv
[22] = biological target: Photoreceptor-specific nuclear receptor (Homo sapiens, UniProt Q9Y5X4); assay: ligands suppressing NR2E3 nuclear receptor activity – biochemical, TR-FRET, dose response (AID 463256); assay type: functional
Sequence of Photoreceptor-specific nuclear receptor (Q9Y5X4 whole entry): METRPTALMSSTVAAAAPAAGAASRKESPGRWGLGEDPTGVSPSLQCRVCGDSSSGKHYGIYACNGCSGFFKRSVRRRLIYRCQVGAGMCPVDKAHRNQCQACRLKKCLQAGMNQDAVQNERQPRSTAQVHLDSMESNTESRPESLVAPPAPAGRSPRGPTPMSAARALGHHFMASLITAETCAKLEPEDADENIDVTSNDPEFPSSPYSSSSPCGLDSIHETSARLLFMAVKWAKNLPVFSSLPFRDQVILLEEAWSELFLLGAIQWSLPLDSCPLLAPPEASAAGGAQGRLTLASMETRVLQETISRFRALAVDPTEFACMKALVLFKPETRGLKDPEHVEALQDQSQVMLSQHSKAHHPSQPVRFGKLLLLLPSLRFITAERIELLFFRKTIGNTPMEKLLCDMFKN

[23] = biological target: Peroxisome proliferator-activated receptor gamma/Nuclear receptor corepressor 2 (Homo sapiens, UniProt P37231+Q9Y618); assay: Counterscreen for NR2E3 inverse agonists: TR-FRET-based biochemical high throughput dose response assay to identify inverse agonists of the interaction between peroxisome proliferator-activated receptor gamma (PPARg) and nuclear receptor co-repressor 2 (NCOR2).; assay type: functional
[24] = lung carcinoma cell viability loss – CellTiter-Glo luminescence, dry powder, set 17, dose response (AID 1117284); assay type: functional, cell-based; settings: A549
[25] = biological target: Ras and Rab interactor 1/Tyrosine-protein kinase ABL1 (Homo sapiens, UniProt P00519+Q13671); assay type: functional;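 note: biochemical TR-FRET dose-response test measuring inhibition of binding between Rin1 and Abl proteins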

In the case of `NCc1ccc(S(N)(=O)=O)cc1` [MAFENIDE HYDROCHLORIDE], the IC50 [1] is reported as > 33.3 µM (inactive) and the IC50 (cells) is reported as > 33.3 µM (inactive).

With `CC(=O)Oc1ccccc1C(=O)Nc1ncc([N+](=O)[O-])s1` [NITAZOXANIDE] the IC50 [2] was > 10 µM (inactive) and the IC50 [3] was > 10 µM (inactive).

In the case of `CCc1ccc2[nH]c3nc(N/N=C/c4ccc(O)cc4O)nnc3c2c1`, the EC50 [4] is reported as > 91.7 µM (not active), the EC50 [5] is reported as 2.44 µM (active) and the AC50 (Paired box protein Pax-8) is reported as 2.7 µM (active). The AC50 (INS1) was 1.58 µM (active) and the EC50 [6] was 17.7 µM (active).

For `COc1ccc(-c2cc3c(=O)n(CC(=O)NCCCN4CCC(Cc5ccccc5)CC4)ncn3n2)cc1`, the EC50 [7] was 9.23 µM (inconclusive), the IC50 [8] was > 20 µM (inactive) and the EC50 [9] was 8.08 µM (active). The EC50 (BJ [10]) was 16.4 µM (active), the CC50 [11] was 34.2 µM (active) and the EC50 [12] was 11.4 µM (active). The EC50 [13] was 8.06 µM (active), the EC50 (BJ [14]) was 10.1 µM (active) and the IC50 [15] was 6.82 µM (active). For the same compound, the EC50 (BJ [16]) was 12.9 µM (inconclusive).

In the case of `O=C1Nc2ccccc2C(=O)C1(Cl)Cc1ccccc1` (centres undefined), the IC50 [17] is reported as > 64 µM (inactive), the IC50 [18] is reported as > 80 µM (inactive) and the IC50 (H9c2) is reported as 17.2 µM (active). The IC50 [19] was 23.3 µM (active), the IC50 [20] was > 50 µM (inactive) and the IC50 [21] was 62.9 µM (active).

For `CC(=O)Nc1ccc(NC(=O)CNC(=O)c2sc3ccccc3c2Cl)cc1`, the IC50 [22] was 15.5 µM (not active) and the IC50 [23] was 11.1 µM (not active).

With `C[C@@H]1CN([C@H](C)CO)S(=O)(=O)c2ccc(C#C[C@@H](C)O)cc2O[C@@H]1CN(C)Cc1ccc(-c2ccccc2)cc1` the AC50 [24] was 36.1 µM (active) and the IC50 [25] was 9.68 µM (active).
